{
  "source": "paper PMC8038991",
  "about": "“R-catcher, a potent molecular tool to unveil the arginylome” (Cellular and Molecular Life Sciences: CMLS, 2021)",
  "key": {"GST-ZZ122-175^N132D": {"tested_on": "GST-ZZ122-175^N132D", "experiment": "GST-ZZ122-175^N132D pulldown from HeLa lysates (MG132 plus TG)", "assay_type": "binding, human", "conditions": "HeLa lysate, immunoblot", "source_text": "Using these lysates and purified GST tagged ZZ122-175^N132D (Supplementary Fig. 4A) immobilized on glutathione resin, we performed pulldown assays. […] In addition to pulling down R-BiP and R-CRT, GST-ZZ122-175^N132D was able to capture polyubiquitinated proteins, which were also disrupted by the D129A mutation and RA dipeptide competition (Supplementary Fig. 4B). This was expected because arginylated proteins are known to be ubiquitinated by E3 ligases containing a UBR box leading to their proteasomal degradation.\nFig. 4 ZZ122-175 ^N132D is capable of capturing known arginylated proteins in cells. a Western blot analysis to visualize arginylated BiP and CRT. […] N-terminally arginylated BiP and CRT were detected by immunoblotting using anti R-BiP and R-CRT antibodies. b GST pulldown assays to test the ability of wild type (WT) and N132D GST-ZZ in capturing cellular R-BiP and R-CRT. […] Pulled down R-BiP and R-CRT were detected using anti R-BiP and R-CRT antibodies. c Schematic drawing illustrating R-catcher. […] R-catcher bound arginylated proteins were detected by immunoblotting using anti-Myc or Flag antibody. e R-catcher pulldown assay to capture R-BiP and R-CRT induced in HeLa cells stimulated with MG132 plus TG in the absence or presence of 20 mM dipeptides TEXT PRINTED IN THE PICTURE: (C) R-catcher: ~ 9 kDa"}, "R-catcher [1]": {"tested_on": "R-catcher", "experiment": "R-catcher pulldown of putative arginylated ER proteins, HeLa", "assay_type": "binding, human", "conditions": "5 µM MG132 plus 100 nM TG, RA competition, Fig. 6a", "method": "For small-scale R-catcher pull-down assays, 300 µg of purified R-catcher was conjugated with 120 µl of Strep-Tactin sepharose resin by incubating overnight at 4 °C. To test R-catcher’s ability to capture known arginylated proteins, such as R-BiP, R-PDI, R-nsP4 and R-RGS4, plasmids encoding Ub-X-(BiP, PDI and nsP4) or MX-RGS4 (X = Arg or Val) were transiently transfected into HEK293 cells. After 24 h, cells were treated with 10 µM MG132 and 100 nM thapsigargin for another 24 h. Cells were harvested and lysed in hypotonic buffer and 300 µg total protein was incubate with 25 µl R-catcher-sepharose resin in binding buffer (20 mM HEPES pH 7.9, 0.05% Tween 20, 10% glycerol, 0.2 M KCl, protease inhibitor and phosphatase inhibitor) for 3 h with gentle rotation at 4 °C. After three washes with binding buffer, bound proteins were dissociated with 2 × SDS sample buffer and boiling at 100 °C and subjected to immunoblotting using anti-myc or flag antibodies.\nPlasmids encoding the proteins were transiently transfected to HeLa cells for 24 h and stimulated with 5 µM MG132 plus 100 nM TG for another 24 h. Cell lysates were incubated with R-catcher immobilized on tactin beads for 3 h. After wash, bound proteins were eluted with 2 × SDS sample buffer followed by boiling at 100 °C for 10 min and visualized by western blot analysis. b R-catcher pulldown assays to validate ATE1-dependent arginylation of […]1, PRDX4, FBLN1 and CLUS. Plasmids encoding […]1, PRDX4, FBLN1 and CLUS were transiently transfected into + / + and ATE1^−/− MEFs for 24 h and stimulated with 5 µM MG132 plus 100 nM TG for another 9 h. Cell lysates were subjected to R-catcher pulldown, and bound proteins were detected by western blot analysis. c R-catcher pull-down assays to evaluate if the arginylation of FBNL1, SERPINH1, CLUS and PRDX4 is induced in response to MG132 plus thapsigargin. d X-peptide pulldown assays to confirm no interaction of R-catcher with Nt-Ala19 of SERPINH1 peptides and Nt-Trp38 of PRDX4 peptides. X-peptides where X is A19 (SignalP predicted P1’ site), E20 (next possible P1’ site predicted by PrediSi) or R19 (Arginylated form of Glu) for SERPINH1 and W38 (SignalP predicted P1’ site), E39 (next possible P1’ site predicted by PrediSi) or R38 (Arginylated form) for PRDX4. Biotinylated X-peptides immobilized on streptavidin agarose beads were incubated with affinity-purified GST-ZZ ([…]). Bound GST-ZZ (N132D) was detected by immunoblotting. e Identification of arginylated sites employing mutational analysis. Predicted P1’ sites of SERPINH1, PRDX4, CLUS and FBLN1 were substituted to Gly, and the inhibitory effect of the mutation on binding with R-catcher was examined by performing R-catcher pulldown assays"}, "R-catcher [2]": {"tested_on": "R-catcher", "experiment": "R-catcher pulldown in +/+ and ATE1-/- MEFs", "assay_type": "binding", "conditions": "+/+ versus ATE1-/- MEFs, MG132 plus TG, 9 h, Fig. 6b", "method": "(§1) For small-scale R-catcher pull-down assays, 300 µg of purified R-catcher was conjugated with 120 µl of Strep-Tactin sepharose resin by incubating overnight at 4 °C. To test R-catcher’s ability to capture known arginylated proteins, such as R-BiP, R-PDI, R-nsP4 and R-RGS4, plasmids encoding Ub-X-(BiP, PDI and nsP4) or MX-RGS4 (X = Arg or Val) were transiently transfected into HEK293 cells. After 24 h, cells were treated with 10 µM MG132 and 100 nM thapsigargin for another 24 h. […]\n(§2) Plasmids encoding the proteins were transiently transfected to HeLa cells for 24 h and stimulated with 5 µM MG132 plus 100 nM TG for another 24 h. […] Cell lysates were subjected to R-catcher pulldown, and bound proteins were detected by western blot analysis. c R-catcher pull-down assays to evaluate if the arginylation of FBNL1, SERPINH1, CLUS and PRDX4 is induced in response to MG132 plus thapsigargin. d X-peptide pulldown assays to confirm no interaction of R-catcher with Nt-Ala19 of SERPINH1 peptides and Nt-Trp38 of PRDX4 peptides. […] Bound GST-ZZ (N132D) was detected by immunoblotting. e Identification of arginylated sites employing mutational analysis. […]"}, "R-catcher [3]": {"tested_on": "R-catcher", "experiment": "R-catcher pulldown of P1' site Gly mutants", "assay_type": "binding, human", "conditions": "E20 SERPINH1, E30 (printed) PRDX4, D23 CLUS, D30 FBLN1 to Gly, Fig. 6e", "method": "as §1, §2"}, "[4]": {"experiment": "Identification of arginylation sites, GelNrich and in-gel digestion LC-MS/MS", "source_text": "Upon separation of the immunoprecipitated protein by SDS-PAGE and staining with Coomassie Blue, the corresponding protein band was excised, half of which was subjected to GelNrich and the other half to conventional in-gel digestion GelNrich is an N-terminal peptide enrichment method based on in-gel digestion. The method includes in-gel protein level labeling of primary amines using d6-acetic anhydride and post-digestion negative selection of labeled N-terminal peptide(s) using N-hydroxysuccinimide activated agarose beads. Peptides recovered from GelNrich or in-gel digestion were dried in a vacuum evaporator and reconstituted in 0.1% formic acid. An aliquot was injected from a cooled (10 °C) auto-sampler into a reversed-phase EASY-Spray column (25 cm × 75 μm, Thermo Fisher Scientific) on an Eksigent nanoLC-ultra 1D plus system (Danaher Corporation) at a flow rate of 300 nL/min. Prior to use, the column was equilibrated with 96% buffer A (0.1% formic acid in water) and 4% buffer B (0.1% formic acid in acetonitrile). The peptides were eluted with a linear gradient from 4 to 35% buffer B over 60 min and 35–80% buffer B over 2 min followed by an organic wash and aqueous re-equilibration at a flow rate of 300 nL/min with a total run time of 96 min. The HPLC system was coupled to a Q-Exactive mass spectrometer (Thermo Fisher Scientific) operated in a data-dependent acquisition (DDA) mode. […]"}},
  "note": "Entries after “also recorded” stand apart in the source; their conditions may differ.",
  "data": [
    {"substance": "R-BiP: Nt-arginylated BiP", "values": [
      {"measurement": "pulldown by GST-ZZ122-175^N132D", "setting": "GST-ZZ122-175^N132D", "result": "efficiently pull down"},
      {"measurement": "binding with R-catcher, Nt-Arg dependence", "setting": "R-catcher [1]", "result": "bound R-catcher in an Nt-Arg-dependent manner"}
    ]},
    {"substance": "CLU: clusterin", "values": [
      {"measurement": "capture by R-catcher, ATE1 dependence", "setting": "R-catcher [2]", "result": "captured by R-catcher in an ATE1-dependent manner"},
      {"measurement": "effect of Gly substitution of P1' site on interaction with R-catcher", "setting": "R-catcher [3]", "result": "significantly impaired their interaction with R-catcher; also recorded: abolished their binding with R-catcher"},
      {"measurement": "binding with R-catcher, Nt-Arg dependence", "setting": "R-catcher [1]", "result": "Nt-Arg-dependent binding with R-catcher"},
      {"measurement": "arginylation detected by mass spectrometry", "setting": "[4]", "result": "arginylation at the D23 residue"}
    ]}
  ]
}
